Source: PubChem BioAssay (NCI)
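48-hour exposure; five concentrations; linearly interpolated endpoints. The concentration for full growth arrest is given as TGI.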

What was measured:
Experiment in all cases: growth of human tumour cells (NCI), 48 h
NCI-H226 lung = test system: NCI-H226 lung
HOP-92 NSCLC = test system: HOP-92 NSCLC
EKVX NSCLC = test system: EKVX NSCLC
KM12 colon = test system: KM12 colon
UACC-62 melanoma = test system: UACC-62 melanoma
OVCAR-5 ovarian = test system: OVCAR-5 ovarian
OVCAR-4 ovarian = test system: OVCAR-4 ovarian
SW-620 colon = test system: SW-620 colon
MALME-3M melanoma = test system: MALME-3M melanoma
NCI/ADR-RES ovarian = test system: NCI/ADR-RES ovarian
T-47D breast = test system: T-47D breast
786-0 renal = test system: 786-0 renal
OVCAR-8 ovarian = test system: OVCAR-8 ovarian
OVCAR-3 ovarian = test system: OVCAR-3 ovarian
A498 renal = test system: A498 renal
NCI-H522 lung = test system: NCI-H522 lung
LOX IMVI melanoma = test system: LOX IMVI melanoma
SK-MEL-5 melanoma = test system: SK-MEL-5 melanoma
SF-539 CNS = test system: SF-539 CNS
A549 NSCLC = test system: A549 NSCLC
MCF7 breast = test system: MCF7 breast
SR leukemia = test system: SR leukemia
UO-31 renal = test system: UO-31 renal
SK-OV-3 ovarian = test system: SK-OV-3 ovarian
SK-MEL-2 melanoma = test system: SK-MEL-2 melanoma
U251 CNS = test system: U251 CNS
IGROV1 ovarian = test system: IGROV1 ovarian
MDA-N = test system: MDA-N
RPMI-8226 leukemia = test system: RPMI-8226 leukemia
CAKI-1 renal = test system: CAKI-1 renal
RXF 393 renal = test system: RXF 393 renal
HCT-116 colon = test system: HCT-116 colon
UACC-257 melanoma = test system: UACC-257 melanoma
SF-295 CNS = test system: SF-295 CNS
MOLT-4 leukemia = test system: MOLT-4 leukemia
HCT-15 colon = test system: HCT-15 colon
COLO 205 colon = test system: COLO 205 colon
SN12C renal = test system: SN12C renal
CCRF-CEM leukemia = test system: CCRF-CEM leukemia
DU-145 prostate = test system: DU-145 prostate
NCI-H460 lung = test system: NCI-H460 lung
HCC-2998 colon = test system: HCC-2998 colon
SNB-19 CNS = test system: SNB-19 CNS
SNB-75 CNS = test system: SNB-75 CNS
SF-268 CNS = test system: SF-268 CNS
HOP-62 NSCLC = test system: HOP-62 NSCLC
MDA-MB-231 breast = test system: MDA-MB-231 breast
M14 melanoma = test system: M14 melanoma
BT-549 breast = test system: BT-549 breast
TK-10 renal = test system: TK-10 renal
PC-3 prostate = test system: PC-3 prostate
ACHN renal = test system: ACHN renal
SK-MEL-28 melanoma = test system: SK-MEL-28 melanoma
HS 578T breast = test system: HS 578T breast
NCI-H23 lung = test system: NCI-H23 lung
HT29 colon = test system: HT29 colon
K-562 leukemia = test system: K-562 leukemia
MDA-MB-435 = test system: MDA-MB-435
HL-60(TB) leukemia = test system: HL-60(TB) leukemia

Structure (SMILES): OCCCCn1cc(Cn2ncc3c(SCc4ccccc4)ncnc32)nn1
- TGI (NCI-H226 lung): > 100 µM
- TGI (HOP-92 NSCLC): > 100 µM
- TGI (EKVX NSCLC): > 100 µM
- TGI (KM12 colon): > 100 µM
- TGI (UACC-62 melanoma): > 100 µM
- TGI (OVCAR-5 ovarian): > 100 µM
- TGI (OVCAR-4 ovarian): > 100 µM
- TGI (SW-620 colon): 90.9 µM
- TGI (MALME-3M melanoma): > 100 µM
- TGI (NCI/ADR-RES ovarian): > 100 µM
- TGI (T-47D breast): > 100 µM
- TGI (786-0 renal): > 100 µM
- TGI (OVCAR-8 ovarian): > 100 µM
- TGI (OVCAR-3 ovarian): > 100 µM
- TGI (A498 renal): > 100 µM
- TGI (NCI-H522 lung): > 100 µM
- TGI (LOX IMVI melanoma): > 100 µM
- TGI (SK-MEL-5 melanoma): 54.5 µM
- TGI (SF-539 CNS): > 100 µM
- TGI (A549 NSCLC): > 100 µM
- TGI (MCF7 breast): > 100 µM
- TGI (SR leukemia): 85.4 µM
- TGI (UO-31 renal): > 100 µM
- TGI (SK-OV-3 ovarian): > 100 µM
- TGI (SK-MEL-2 melanoma): > 100 µM
- TGI (U251 CNS): > 100 µM
- TGI (IGROV1 ovarian): > 100 µM
- TGI (MDA-N): 39.2 µM
- TGI (RPMI-8226 leukemia): > 100 µM
- TGI (CAKI-1 renal): > 100 µM
- TGI (RXF 393 renal): > 100 µM
- TGI (HCT-116 colon): > 100 µM
- TGI (UACC-257 melanoma): > 100 µM
- TGI (SF-295 CNS): > 100 µM
- TGI (MOLT-4 leukemia): 77.3 µM
- TGI (HCT-15 colon): > 100 µM
- TGI (COLO 205 colon): 91.4 µM
- TGI (SN12C renal): > 100 µM
- TGI (CCRF-CEM leukemia): > 100 µM
- TGI (DU-145 prostate): > 100 µM
- TGI (NCI-H460 lung): > 100 µM
- TGI (HCC-2998 colon): > 100 µM
- TGI (SNB-19 CNS): > 100 µM
- TGI (SNB-75 CNS): > 100 µM
- TGI (SF-268 CNS): > 100 µM
- TGI (HOP-62 NSCLC): > 100 µM
- TGI (MDA-MB-231 breast): > 100 µM
- TGI (M14 melanoma): > 100 µM
- TGI (BT-549 breast): > 100 µM
- TGI (TK-10 renal): > 100 µM
- TGI (PC-3 prostate): > 100 µM
- TGI (ACHN renal): > 100 µM
- TGI (SK-MEL-28 melanoma): > 100 µM
- TGI (HS 578T breast): > 100 µM
- TGI (NCI-H23 lung): > 100 µM
- TGI (HT29 colon): > 100 µM
- TGI (K-562 leukemia): > 100 µM
- TGI (MDA-MB-435): > 100 µM

Structure (SMILES): CC(C)/C(Cl)=N\OC(=O)Nc1ccc(F)c([N+](=O)[O-])c1
- TGI (NCI-H226 lung): 50.1 µM
- TGI (HOP-92 NSCLC): 4.77 µM
- TGI (EKVX NSCLC): 26.5 µM
- TGI (KM12 colon): 28.5 µM
- TGI (UACC-62 melanoma): 39.1 µM
- TGI (OVCAR-5 ovarian): 42.8 µM
- TGI (OVCAR-4 ovarian): 8.99 µM
- TGI (SW-620 colon): 7.56 µM
- TGI (MALME-3M melanoma): 3 µM
- TGI (NCI/ADR-RES ovarian): 35.2 µM
- TGI (786-0 renal): 7.87 µM
- TGI (OVCAR-8 ovarian): 10.9 µM
- TGI (OVCAR-3 ovarian): 27.2 µM
- TGI (A498 renal): 41.7 µM
- TGI (NCI-H522 lung): 2.45 µM
- TGI (LOX IMVI melanoma): 10.7 µM
- TGI (SK-MEL-5 melanoma): 22.4 µM
- TGI (SF-539 CNS): 7.82 µM
- TGI (A549 NSCLC): 56 µM
- TGI (MCF7 breast): > 58.1 µM
- TGI (SR leukemia): 26.3 µM
- TGI (UO-31 renal): 17.9 µM
- TGI (SK-OV-3 ovarian): 34 µM
- TGI (SK-MEL-2 melanoma): 29.9 µM
- TGI (U251 CNS): 31.1 µM
- TGI (IGROV1 ovarian): 13.5 µM
- TGI (MDA-N): 29.4 µM
- TGI (RPMI-8226 leukemia): 4.87 µM
- TGI (CAKI-1 renal): 3.27 µM
- TGI (RXF 393 renal): 33 µM
- TGI (HCT-116 colon): 11.7 µM
- TGI (UACC-257 melanoma): 33.5 µM
- TGI (SF-295 CNS): 37.9 µM
- TGI (MOLT-4 leukemia): 4.94 µM
- TGI (HCT-15 colon): 6.75 µM
- TGI (COLO 205 colon): 4.36 µM
- TGI (SN12C renal): 16.5 µM
- TGI (DU-145 prostate): 32.8 µM
- TGI (NCI-H460 lung): 7.89 µM
- TGI (HCC-2998 colon): > 100 µM
- TGI (SNB-19 CNS): 30.6 µM
- TGI (SNB-75 CNS): 27.2 µM
- TGI (SF-268 CNS): 27.6 µM
- TGI (HOP-62 NSCLC): 32 µM
- TGI (MDA-MB-231 breast): 28.9 µM
- TGI (M14 melanoma): > 32.4 µM
- TGI (BT-549 breast): 27 µM
- TGI (TK-10 renal): 13.5 µM
- TGI (PC-3 prostate): 32.2 µM
- TGI (ACHN renal): 3.39 µM
- TGI (SK-MEL-28 melanoma): 17.4 µM
- TGI (HS 578T breast): 25.1 µM
- TGI (NCI-H23 lung): 41.2 µM
- TGI (HT29 colon): 35.3 µM
- TGI (HL-60(TB) leukemia): 2.85 µM
- TGI (K-562 leukemia): > 100 µM
- TGI (MDA-MB-435): 26 µM
